# From US12319696B2, “2,6-dimethyl-n-((pyridin-4-yl)methyl)imidazo[1,2-b]pyridazin-8-amine and 2,5-dimethyl-n-[(pyridin-4-yl)methyl]pyrazolo[1,5-a]pyrimidin-7-amine derivatives for treating viral infections” (CUROVIR AB, priority 2018, dated 2025)
# Experiments:
# [1] = system: enterovirus strain 6; assay: microbe, parasite or virus in culture; format: cell-based; conditions: inhibition of viral CPE
# [2] = system: enterovirus strain 30; assay: Antiviral CPE inhibition assay in mammalian cell culture, EV30; format: cell-based; conditions: inhibition of viral CPE
# [3] = system: enterovirus D68; assay: Antiviral CPE inhibition assay in mammalian cell culture, EV-D68; format: cell-based; conditions: Enterovirus D, EVD68, inhibition of viral CPE
# [4] = system: enterovirus strain 71; assay: Antiviral CPE inhibition assay in mammalian cell culture, EV71; format: cell-based; conditions: inhibition of viral CPE
# [5] = system: coxsackie B virus strain 1; assay: Antiviral CPE inhibition assay in mammalian cell culture, Cox B1; format: cell-based
# [6] = system: coxsackie B virus strain 2; assay: Antiviral CPE inhibition assay in mammalian cell culture, Cox B2; format: cell-based
# [7] = system: coxsackie B virus strain 3; assay: Antiviral CPE inhibition assay in mammalian cell culture, Cox B3; format: cell-based
# [8] = system: coxsackie B virus strain 5; assay: Antiviral CPE inhibition assay in mammalian cell culture, Cox B5; format: cell-based
# [9] = system: polio virus strain 1; assay: organism not typed; format: cell-based
# [10] = biological target: T1, CYP3A4 (Homo sapiens, UniProt P08684); assay: In vitro CYP 3A4 enzyme inhibition in human liver microsomes by probe substrate method; format: in vitro ADME; conditions: human liver microsomes 0.5 mg/mL; probe substrate Midazolam 5 μM
# T1 construct: from tissue; host or cells: human liver microsomes
# T1 sequence (P08684 whole entry): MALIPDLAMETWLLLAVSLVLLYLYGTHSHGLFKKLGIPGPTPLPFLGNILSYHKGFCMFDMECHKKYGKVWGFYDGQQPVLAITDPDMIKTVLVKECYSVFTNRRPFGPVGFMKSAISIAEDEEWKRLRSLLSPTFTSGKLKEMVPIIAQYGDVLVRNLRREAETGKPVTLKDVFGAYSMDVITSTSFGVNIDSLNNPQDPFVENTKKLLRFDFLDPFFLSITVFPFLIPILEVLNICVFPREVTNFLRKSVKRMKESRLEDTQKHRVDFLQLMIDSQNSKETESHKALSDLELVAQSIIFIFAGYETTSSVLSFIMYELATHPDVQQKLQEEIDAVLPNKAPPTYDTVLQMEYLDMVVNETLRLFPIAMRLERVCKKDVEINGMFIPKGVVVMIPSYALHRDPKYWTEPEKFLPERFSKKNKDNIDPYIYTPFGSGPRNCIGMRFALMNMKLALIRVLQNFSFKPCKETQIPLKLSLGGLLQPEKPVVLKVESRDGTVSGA
# Method: In Vitro CYP 3A4 Enzyme Inhibition Study in Human Liver Microsomes by Probe Substrate Method
# In vitro CYP3A4 enzyme inhibition assay was performed using Human liver microsomes at 0.5 mg/mL concentration. Ketoconazole was used as reference inhibitor and Midazolam was used as selective probe substrate for CYP 3A4 enzyme. Serial dilution of test/control items was prepared in potassium phosphate buffer (50 mM, pH 7.40) to obtain eight concentrations each in a 1:4 dilution pattern. The percentage of acetonitrile/DMSO was maintained at 2.5%/0.25% in 2.5× serially diluted control/test item solutions respectively. The final percentage of acetonitrile/DMSO was 1%/0.1% respectively. Intermediate solutions such as 10× working solution (5 mg/mL) of Human liver microsomal solution, 10× concentration of reference probe substrates in buffer, 5× concentrations of Cofactors (5.0 mM NADP+, 25.0 mM G-6-P, 3.0 IU/mL G-6-PDH and 10.0 mM MgCl2) were prepared in potassium phosphate buffer. The final concentration of liver microsomes in the reaction mixture was 0.5 mg/mL, cofactors was 1.0 mM NADP+, 5.0 mM G-6-P, 0.6 IU/mL G-6-PDH and 2.0 mM MgCl2. Midazolam was tested at 5 μM test concentration. 40 μL of 2.5× serially diluted test/control item solutions and 10 μL of […] liver microsomal solution were added to 96 well plate and incubated for 10 min at 37° C. with shaking condition (400 rpm) using Thermomixer. After pre incubation, 20 μL of potassium phosphate buffer, 10 μL of respective probe substrate working solution and 20 μL of cofactor mix was added.
# [11] = in vivo; set-up: species or system Sprague Dawley rats; conditions: male, Sprague Dawley, rat, po, 10 mg/kg
# Method: 10 mg of the compound was weighed and transferred to graduated tube. Then 500 μL of DMA (5% v/v) was added, vortex mixed thoroughly and sonicated till test item was completely dissolved. Then 5 mL of PEG 200 (50% v/v) were added, and vortex mixed thoroughly. Thereafter, Sterile Water for Injection (SWFI) was added in small increments and vortex mixed thoroughly. Finally, the volume was made up to 10 mL with SWFI (45% v/v) to obtain a clear solution with final formulation strength of 1 mg/mL. […] Formulation was freshly prepared before the administration to animals. Adult healthy male Sprague Dawley rats aged 8-10 weeks were used for experimentation after a minimum 3 days of acclimation. Fasted animals were administered with test compound in recommended vehicle (5% DMA+50% PEG 200+45% SWFI) by oral route at a dose of 10 mg/kg body weight and at dose volume of 10 mL/kg body weight. Under mild isoflurane anesthesia, blood specimens were collected into pre-labeled tubes containing anticoagulant (K2EDTA—2 mg/mL blood) at different time points post dose.
# [12] = Metabolic stability in human liver microsomes; format: in vitro ADME; conditions: 5 μM test item, 0.25 mg/mL microsomal protein
# Method: (§1) Metabolic stability assay was carried out using Human/Rat liver microsomes. […] Test item/Control items were incubated with Human/Rat liver microsomes with cofactors and without cofactors. The reaction mixture (100 μL) was removed at specified time period and the reaction was stopped by addition of stop solution. The samples were extracted in presence of internal standard and were analyzed using LC-MS/MS. The percent of the test/Control item remaining after specified incubation period was calculated with respect to the peak area ratio at time 0 min. […] The reaction mixture was incubated further at 37° C. for specified incubation time points (With Cofactors: 0, 15, 30, 60 and 120 min; Without Cofactors: 0 and 120 min). 100 μL incubation samples of test items and Control items at specified incubation time points were transferred to respective tubes for sample extraction. Test and Control item specimens were extracted by Protein precipitation method. A 100 μL incubation sample at each time point was added to tubes containing 200 μL of ice-cold acetonitrile and 50 μL Haloperidol solution (0.5 μg/mL). Then the tubes were vortex mixed thoroughly and centrifuged at 10000 rpm for 10 minutes at 4° C. A clear supernatant of 200 μL of samples were submitted for LC-MS/MS analysis.
# [13] = Metabolic stability in rat liver microsomes; format: in vitro ADME; conditions: 5 μM test item, 0.25 mg/mL microsomal protein
# Method: as §1
# [14] = Human plasma protein binding (Rapid Equilibrium Dialysis); format: in vitro ADME; conditions: pH 7.4, RED device, 37° C.
# Method: (§2) Plasma protein binding study was performed using a Rapid Equilibrium Dialysis (RED) device containing dialysis membrane with a molecular weight cut-off of 8,000 Daltons. Each dialysis insert contained two chambers. The red chamber was for the plasma while the white chamber was for the buffer. Test items and Control items (Warfarin and Propranolol) were prepared at a required test concentration of 10 μM in Human/Rat plasma (pH adjusted to 7.40) using 10 mM DMSO stocks (final DMSO concentration was 0.1%). 300 μL of plasma sample was added into the sample chamber. 500 μL of buffer was added into the buffer chamber. After sealing the RED device with an adhesive film, incubation was done at 37° C. with shaking at 300 rpm for 4 h. Following incubation, an aliquot of 50 μL was removed from each well (plasma and buffer side) and diluted with equal volume of opposite matrix to nullify the matrix effect and subjected for sample extraction.
# (§3) All samples were extracted by Protein Precipitation method by adding 200 μL of ice cold Acetonitrile and 50 μL of internal standard (Haloperidol at 0.1 μg/mL) solution. The tubes were vortex mixed thoroughly and centrifuged at 10000 rpm, 4° C. for 10 minutes. A clear supernatant of 200 μL of samples were submitted for LC-MS/MS analysis.
# [15] = Rat plasma protein binding (Rapid Equilibrium Dialysis); format: in vitro ADME; conditions: pH 7.4, RED device, 37° C.
# Method: as §2, §3
# [16] = mice; cited from earlier work
compound,measurement,setting,value
"Cc1cc(CNc2cc(C)nc3c(-c4ccc5c(c4)c(C)nn5C)c(C)nn23)ccn1 [Ex. 4, 3-(1,3-dimethyl-1H-indazol-5-yl)-2,5-dimethyl-N-[(2-methylpyridin-4-yl)methyl]pyrazolo[1,5-a]pyrimidin-7-amine]",inhibition at 0.01 µM,"[1]; 10 nM, read-out: Inh. at 10 nM, EV6",100%
same,inhibition at 0.1 µM,"[1]; 100 nM, read-out: Inh. at 100 nM, EV6",100%
same,inhibition at 0.01 µM,"[2]; 10 nM, read-out: Inh. at 10 nM, EV30",100%
same,inhibition at 0.1 µM,"[2]; 100 nM, read-out: Inh. at 100 nM, EV30",100%
same,inhibition at 0.01 µM,"[3]; 10 nM, read-out: Inh. at 10 nM, EV-D68",81%
same,inhibition at 0.1 µM,"[3]; 100 nM, read-out: Inh. at 100 nM, EV-D68",70%
same,inhibition at 0.01 µM,"[4]; 10 nM, read-out: Inh. at 10 nM, EV71",76%
same,inhibition at 0.1 µM,"[4]; 100 nM, read-out: Inh. at 100 nM, EV71",79%
same,inhibition at 0.01 µM,"[5]; read-out: Inh. at 10 nM, Cox B1",100%
same,inhibition at 0.1 µM,"[5]; read-out: Inh. at 100 nM, Cox B1",100%
same,inhibition at 0.01 µM,"[6]; read-out: Inh. at 10 nM, Cox B2",100%
same,inhibition at 0.1 µM,"[6]; read-out: Inh. at 100 nM, Cox B2",100%
same,inhibition at 0.01 µM,"[7]; read-out: Inh. at 10 nM, Cox B3",100%
same,inhibition at 0.1 µM,"[7]; read-out: Inh. at 100 nM, Cox B3",100%
same,inhibition at 0.01 µM,"[8]; read-out: Inh. at 10 nM, Cox B5",74%
same,inhibition at 0.1 µM,"[8]; read-out: Inh. at 100 nM, Cox B5",100%
same,inhibition at 0.01 µM,"[9]; read-out: Inh. at 10 nM, Polio 1",100%
same,inhibition at 0.1 µM,"[9]; read-out: Inh. at 100 nM, Polio 1",100%
same,IC50,[10],> 25 µM
same,AUC(0-inf),[11],27400 ± 10100 ng·h/mL
same,AUC(0-t),[11],25200 ± 10000 ng·h/mL
same,AUCextrap,[11],8.5 ± 5.2%
same,Cmax,[11],2500 ± 900 ng/mL
same,MRT last,[11],6.7 ± 0.6 h
same,Tmax,[11],1.3 ± 0.6 h
same,half-life,[11],6.8 ± 1.5 h
same,"% remaining after incubation for 60 min, Human microsomes",[12],90.0%
same,"% remaining after incubation for 60 min, Rat microsomes",[13],84.0%
same,"fraction unbound at 4 h, 10 μM",[14],0.015
same,"fraction unbound at 4 h, 10 μM",[15],0.017
"COc1ccc(-c2c(C)nn3c(NCCN4CCOCC4)cc(C)nc23)cc1OC [T-00127-HEV1, 3-(3,4-dimethoxyphenyl)-2,5-dimethyl-N-(2-morpholinoethyl)pyrazolo[1,5-a]pyrimidin-7-amine]",mortality when tested in-vivo,[16],induced mortality in mice
